The subject of experiment [1] is NCI-H295R adrenocortical carcinoma cells. As to the kind of experiment: Chou-Talalay combination assay, Cell Titer Glo. As to conditions: combination with pyrvinium pamoate, 72 hour incubation. The class given is cell-based.
Procedure: (§1) Following a 72 hour incubation, cell viability was determined using Cell Titer Glo.
Experiment [2] concerns TC-71 Ewing's sarcoma cells. The experiment in a line: Chou-Talalay combination assay, Cell Titer Glo. The following applies: 72 hour incubation. The class given is cell-based.
Procedure: as §1
The subject of experiment [3] is COV362 ovarian carcinoma cells. As to the kind of experiment: Chou-Talalay combination assay, Cell Titer Glo. The following applies: combination with pyrvinium pamoate, 72 hour incubation. In kind it is cell-based.
Procedure: as §1
The test system of experiment [4] is Rh41 rhabdomyosarcoma cells. As to the kind of experiment: Chou-Talalay combination assay, Cell Titer Glo. In kind it is cell-based. As to conditions: combination with pyrvinium pamoate, 72 hour incubation.
Procedure: as §1
The subject of experiment [5] is CHP-212 neuroblastoma cells. As to the kind of experiment: Chou-Talalay combination assay, Cell Titer Glo. In kind it is cell-based. As to conditions: 72 hour incubation; for CI range: combination with pyrvinium pamoate.
Procedure: as §1
Experiment [6] has as its system UM-Chor1 chordoma cell line. As to the kind of experiment: Chou-Talalay combination assay, Cell Titer Glo. The following applies: combination with pyrvinium pamoate, 72 hour incubation. The class given is cell-based.
Procedure: as §1
Experiment [7] has as its system SW13 adrenocortical carcinoma cells. As to the kind of experiment: Chou-Talalay combination assay, Cell Titer Glo. In kind it is cell-based. As to conditions: 72 hour incubation.
Procedure: as §1
Experiment [8] concerns carcinoid tumor cell line STC-1. The experiment in a line: Chou-Talalay combination assay, Cell Titer Glo. In kind it is cell-based. As to conditions: combination with pyrvinium pamoate, 72 hour incubation.
Procedure: as §1
Experiment [9] has as its system TFK-1 cholangiocarcinoma cells. As to the kind of experiment: Chou-Talalay combination assay, Cell Titer Glo. The following applies: 72 hour incubation; for CI range: combination with pyrvinium pamoate. The class given is cell-based.
Procedure: as §1
Experiment [10] concerns SNU-16 gastric carcinoma cells. As to the kind of experiment: Chou-Talalay combination assay, Cell Titer Glo. The class given is cell-based. As to conditions: combination with pyrvinium pamoate, 72 hour incubation.
Procedure: as §1
In another experiment the test system is JU-77 mesothelioma cells. As to the kind of experiment: Chou-Talalay combination assay, Cell Titer Glo. The class given is cell-based. As to conditions: combination with pyrvinium pamoate, 72 hour incubation.
Experiment [11] deals with GIST-1 gastrointestinal stromal tumor cells. As to the kind of experiment: Chou-Talalay combination assay, Cell Titer Glo. In kind it is cell-based. As to conditions: combination with pyrvinium pamoate, 72 hour incubation.
Procedure: as §1
The test system of experiment [12] is SK-UT-1B leiomyosarcoma cells. The experiment in a line: Chou-Talalay combination assay, Cell Titer Glo. In kind it is cell-based. As to conditions: combination with pyrvinium pamoate, 72 hour incubation.
Procedure: as §1
In experiment [13] the test system is TC-32 Ewing's sarcoma cells. As to the kind of experiment: Chou-Talalay combination assay, Cell Titer Glo. In kind it is cell-based. The following applies: combination with pyrvinium pamoate, 72 hour incubation.
Procedure: as §1
For experiment [14], the system named is SK-UT-1 leiomyosarcoma cells. As to the kind of experiment: Chou-Talalay combination assay, Cell Titer Glo. The class given is cell-based. The following applies: combination with pyrvinium pamoate, 72 hour incubation.
Procedure: as §1
Experiment [15] has as its system SK-N-AS neuroblastoma cells. As to the kind of experiment: Chou-Talalay combination assay, Cell Titer Glo. In kind it is cell-based. The following applies: SK-N-AS; combination with pyrvinium pamoate; 72 hour incubation.
Procedure: as §1
Experiment [16] relates to TOV-112D ovarian carcinoma cells. The experiment in a line: Chou-Talalay combination assay, Cell Titer Glo. In kind it is cell-based. As to conditions: 72 hour incubation.
Procedure: as §1
For experiment [17], the system named is Kato-III gastric carcinoma cells. As to the kind of experiment: Chou-Talalay combination assay, Cell Titer Glo. In kind it is cell-based. The following applies: Kato-III; combination with pyrvinium pamoate; 72 hour incubation.
Procedure: as §1
For experiment [18], the system named is CCC-5 cholangiocarcinoma cells. The experiment in a line: Chou-Talalay combination assay, Cell Titer Glo. The following applies: 72 hour incubation; for CI range: combination with pyrvinium pamoate. In kind it is cell-based.
Procedure: as §1
Experiment [19] deals with SKOV-3 ovarian carcinoma cells. The experiment in a line: Chou-Talalay combination assay, Cell Titer Glo. The class given is cell-based. The following applies: combination with pyrvinium pamoate, 72 hour incubation.
Procedure: as §1
Another experiment has as its system LO-68 mesothelioma cells. The experiment in a line: Chou-Talalay combination assay, Cell Titer Glo. The class given is cell-based. The following applies: combination with pyrvinium pamoate, 72 hour incubation.
Experiment [20] has as its system Rh30 rhabdomyosarcoma cells. The experiment in a line: Chou-Talalay combination assay, Cell Titer Glo. The class given is cell-based. As to conditions: combination with pyrvinium pamoate, 72 hour incubation.
Procedure: as §1
The subject of experiment [21] is BxPC-3 pancreatic carcinoma cells. The experiment in a line: Chou-Talalay combination assay, Cell Titer Glo. The following applies: combination with pyrvinium pamoate, 72 hour incubation.
Procedure: as §1
In experiment [22] the test system is SK-LMS-1 leiomyosarcoma cells. As to the kind of experiment: Chou-Talalay combination assay, Cell Titer Glo. In kind it is cell-based. As to conditions: combination with pyrvinium pamoate, 72 hour incubation.
Procedure: as §1
The subject of experiment [23] is Hs766t pancreatic carcinoma cells. The experiment in a line: Chou-Talalay combination assay, Cell Titer Glo. The class given is cell-based. As to conditions: 72 hour incubation.
Procedure: as §1
For experiment [24], the system named is PC12 pheochromocytoma/paraganglioma cells. As to conditions: combination with pyrvinium pamoate, 72 hour incubation.
Procedure: as §1
In experiment [25] the test system is DMS-114 small cell lung carcinoma cells. As to the kind of experiment: Chou-Talalay combination assay, Cell Titer Glo. The class given is cell-based. As to conditions: combination with pyrvinium pamoate, 72 hour incubation.
Procedure: as §1
For experiment [26], the system named is IMR-32 neuroblastoma cells. The experiment in a line: Chou-Talalay combination assay, Cell Titer Glo. The class given is cell-based. The following applies: combination with pyrvinium pamoate, 72 hour incubation.
Procedure: as §1
The subject of experiment [27] is SW-1271 small cell lung carcinoma cells. As to the kind of experiment: Chou-Talalay combination assay, Cell Titer Glo. The following applies: combination with pyrvinium pamoate, 72 hour incubation. In kind it is cell-based.
Procedure: as §1
[28] abbreviates: combination with pyrvinium pamoate.

Values joined by “and” are separate entries in the source; they are usually repeats but may differ in a detail not shown here. Equal entries are not always repeated.

Procedure for JU-77 mesothelioma cells: as §1
Procedure for LO-68 mesothelioma cells: as §1

With `COc1cccc2c1C(=O)c1c(O)c3c(c(O)c1C2=O)C[C@@](O)(C(=O)CO)C[C@@H]3O[C@H]1C[C@H](N)[C@H](O)[C@H](C)O1` [Doxorubicin], the CI range in experiment [1] is listed as 0.185-0.872; in experiment [3], 0.021-0.895; in experiment [4], 0.145-0.834; in [5], 0.696-0.812; in [6] it was 0.423-0.875; in experiment [8], 0.807-0.890. The CI range in experiment [10] was 0.614-0.878; with JU-77 mesothelioma cells, 0.444-0.889; in experiment [11] it was 0.169-0.883; in experiment [12] it was 0.352-0.739; in experiment [13], 0.424-0.872; in [14] it was “(0.556-0.858)”. For the same compound, the CI range entry in [15] is given as “Yes- (0.082-0.879)”; in experiment [17], “Yes- (0.021-0.584)”; in experiment [18], 0.341-0.805; in experiment [19], “(0.017-0.870)”; in the experiment on LO-68 mesothelioma cells it was 0.008-0.642. The “Synergy with pyrvinium pamoate” value in experiment [2], in experiment [7], in experiment [9] and in [16] was “No” each time.
Regarding `CC[C@]1(O)C[C@H]2CN(CCc3c([nH]c4ccccc34)[C@@](C(=O)OC)(c3cc4c(cc3OC)N(C=O)[C@H]3[C@@](O)(C(=O)OC)[C@H](OC(C)=O)[C@]5(CC)C=CCN6CC[C@]43[C@@H]65)C2)C1` [Vincristine], the CI range is 0.752-0.827 in [1]; 0.251-0.898 in experiment [2] (setting [28]); 0.432-0.825 in experiment [3]; 0.284-0.876 in experiment [4]; 0.249-0.560 in experiment [6]; 0.499-0.875 in [7] (setting [28]). Moreover, the CI range in [20] is 0.477-0.883; in [8], 0.036-0.854; in experiment [9] it was 0.453-0.827; in experiment [11], 0.231-0.756 and 0.150-0.772; in [21] it was 0.347-0.869; in [22] it was 0.163-0.831. Moreover, the values for the CI range in experiment [13], in experiment [16] (setting [28]) and in experiment [24] were 0.659-0.869, 0.477-0.858 and 0.614-0.841, respectively. For the same compound, the “Synergy with pyrvinium pamoate” value in [5], in [18] and in experiment [23] was “No” each time.
For the compound `CCN1CCN(Cc2ccc(Nc3ncc(F)c(-c4cc(F)c5nc(C)n(C(C)C)c5c4)n3)nc2)CC1` [Abemaciclib], the CI range is given as 0.144-0.714 in experiment [3]; 0.076-0.772 in experiment [5]; 0.148-0.886 in [20]; 0.522-0.884 in [9]; 0.327-0.876 in [25]; “(0.485-0.860)” in experiment [26]. Moreover, the CI range in [11] is 0.249-0.699; in [21], 0.417-0.895; in experiment [22], 0.350-0.808; in experiment [27], 0.183-0.889; in experiment [18], 0.628-0.841; in experiment [23] (setting [28]), 0.587-0.863 and 0.304-0.879.

For the origin of these results see US10933061B2 (Shepherd Therapeutics, Inc., priority 2017, dated 2021).
